{"source": "paper PMC11309765", "about": "“Mechanism of the blood-brain barrier modulation by cadherin peptides” (Exploration of drug science, 2024)", "key": {"[1]": {"test_system": "Madin-Darby canine kidney (MDCK) cell monolayers", "conditions": "Val6 mutation; cited from earlier work", "text": "Currently, the mechanism of binding as well as the EC1 binding site of ADT peptides have not been elucidated; thus, this study was aimed at using nuclear magnetic resonance (NMR) and molecular docking experiments to determine ADTC5 binding properties (Table 1) on EC1. […] Therefore, the Val6 residue was mutated to the Glu6 or Tyr6 re ..."}, "[2]": {"target": "T1, EC1 domain of human E-cadherin (Homo sapiens, UniProt P12830)", "T1 construct": "Strep-tag I (WSHPQFEK) (C); factor Xa cleavage site (IEGR) linker (C); made in house; host or cells: E. coli BL21(DE3), plasmid pASK-IBA6", "T1 sequence (P12830 155-292)": "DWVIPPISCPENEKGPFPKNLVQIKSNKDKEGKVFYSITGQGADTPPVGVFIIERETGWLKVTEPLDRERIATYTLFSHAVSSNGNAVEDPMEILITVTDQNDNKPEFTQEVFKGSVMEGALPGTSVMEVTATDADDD", "test": "1H-15N HSQC NMR titration of 15N-labeled EC1 (chemical shift perturbation, CSP)", "assay_type": "binding", "text": "Our previous method was used to express and purify the ^15N-labeled EC1 domain [22]. Briefly, the plasmid (pASK-IBA6, Genosys, Woodland, TX) contains DNA construct of 138 amino acid residues. The EC1 domain has 110 residues connected to 28 amino acids from the EC2 domain sequence at the C-terminus tail followed by a WSHPQFEK sequence of Streptag I that is linked by an IEGR sequence for a factor Xa cleavage. Then, the plasmid was transformed into competent E. coli BL21(DE3) cells (New England Biosciences, Ipswich, MA). The cells were incubated at 37°C overnight on a plate with lysogeny broth (LB) agar containing […] ampicillin. A single colony of E. coli cells was picked and incubated in 10 mL of LB media followed by the addition of 10 μL ampicillin at 100 mg/mL concentration. Then, the mixture was incubated in an orbital shaker at 250 rpm and 37°C. ^15N-labeled NH4Cl was added to 250 mL of M9 minimal media in 1 L Erlenmeyer flask to produce the ^15N-labeled EC1 domain. A 24 μL of anhydrotetracycline (2 mg/mL; Promega Inc., Madison, WI) was spiked into the cell culture when it reached OD550 of 0.5–0.6 to induce the EC1 protein expression. Then, the cell mixture was incubated at 30°C for 6–7 h followed by cell harvesting using centrifugation at 4,500 xg. The resulting cell pellets were stored at −80°C.\nFor isolation of purified ^15N-EC1, E. coli cell pellets were lysed using 20,000 psi French press (Thermo Electron Corporation) in 10 mL of binding buffer. This binding buffer consists of 150 mM NaCl, 1.0 mM EDTA, 0.02% NaN3, and 100 mM Tris-HCl at pH = 8.0. The mixture was centrifuged at 21,000 xg, 4°C, and 1 h to get rid of cellular debris. The EC1 domain was in the supernatant and the Amicon Ultra protein concentrator [10 kDa molecular weight (MW) cut-off, EMD Millipore, Billerica, MA] was used to concentrate the protein upon centrifugation at 4,500 rpm, 20 min, and 4°C. […] The purity of pooled EC1 fractions was evaluated by SDS-PAGE. Protein concentration was calculated using UV spectrometry at 280 nm (coefficient absorption = 19,480 M^–1 cm^–1). […]"}, "BBB tight junctions": {"test_system": "BBB tight junctions", "conditions": "cited from earlier work", "text": "As BBBMs, the in vivo activities of ADT and HAV peptides to modulate the BBB were transient and reversible. […] Different cadherin peptides produced different durations of the BBB opening for different sizes of del ..."}, "[3]": {"test_system": "blood-brain barrier (BBB)", "conditions": "in-situ rat brain perfusion; cited from earlier work"}, "[4]": {"test_system": "blood-brain barrier (BBB)", "conditions": "cited from earlier work", "text": "In addition, Gd-DTPA delivery to the brain was enhanced when co-administered with ADTC5 in living mice upon detection with magnetic resonance imaging (MRI). […] Different cadherin peptides produced different durations of the BBB opening for different sizes of del ..."}}, "note": "“Also recorded” adds a separate entry of the source. Where a SMILES comes first, the peptide text is derived from it. Bridges are numbered along the chain shown (N, C = ends).", "data": [{"smiles": "CC(=O)N[C@H]1CSSC[C@@H](C(N)=O)NC(=O)[C@H](C(C)C)NC(=O)[C@@H]2CCCN2C(=O)[C@@H]2CCCN2C(=O)[C@H]([C@@H](C)O)NC(=O)[C@H](CC(=O)O)NC1=O", "note": "[ADTC5] (Ac-CDTPPVC-NH2; disulfide 1-7)", "values": [{"measurement": "modulatory activity in MDCK cell monolayers", "setting": "[1]", "result": "mutation of this residue reduced inhibitory activity in preventing the resealing of the paracellular pathway"}, {"measurement": "EC1 residues with largest/significant NH chemical shift perturbation", "setting": "[2]; 1H-15N HSQC titration, pH 6.0", "result": "One of the dramatic changes was seen for residue I4 with larger CSP compared to other residues; also recorded: In addition to the strong effect of the NH of I4 residue, significant shifts were also observed in the NHs of I38, I53, V98, D103, and F113 residues; also recorded: large CSP changes on D103, and F113 residues at the C-terminal tail; also recorded: large CSP changes were also observed at the I4, I7, and S8 residues at the N-terminus domain"}, {"measurement": "relative binding affinity to EC1", "setting": "[2]; comparison among ADTC5, ADTC7, ADTC9", "result": "highest binding affinity to the EC1 domain of E-cadherin compared to ADTC7 and ADTC9; also recorded: binds better to the EC1 domain compared to ADTC7 and ADTC9"}, {"measurement": "CSP result in words", "setting": "[2]; comparison of CSP profiles / conformational effect, 1H-15N HSQC", "result": "influences the conformation of the EC1 C-terminal tail; also recorded: All seven clusters have consistent high CSPs on active residues T97, V98, and D103; also recorded: binding of ADTC5 to EC1 may induce conformational change at the C-terminal tail; also recorded: binding of ADTC5 can cause conformational change at the N-terminal region or domain swapping region"}, {"measurement": "anatomical structure of BBB tight junctions", "setting": "BBB tight junctions", "result": "did not change"}, {"measurement": "delivery of various molecules to the brain", "setting": "[3]", "result": "enhanced the delivery of various molecules to the brain"}, {"measurement": "duration of paracellular porosity for Galbumin", "setting": "[4]; 65 kDa Galbumin", "result": "less than 20 min"}, {"measurement": "delivery of mAb to brain", "setting": "[4]; 150 kDa mAb", "result": "had to be administered together with 150 kDa mAb for delivering mAb to the brain"}, {"measurement": "Gd-DTPA delivery to the brain", "setting": "[4]; co-administered, living mice, MRI", "result": "enhanced"}, {"measurement": "brain deposition of peptides, Galbumin and mAb", "setting": "[4]; i.v., co-administered, mice, mass spectrometry, NIRF, MRI", "result": "significantly enhanced brain deposition of peptides, Gd-labeled albumin (Galbumin), and mAb"}, {"measurement": "duration of in vivo paracellular opening for Gd-DTPA", "setting": "[4]; small molecule Gd-DTPA", "result": "less than 4 h"}]}]}
